Some test systems named below: Malme-3M; MOLT-4; A549; IGROV-1; SK-MEL-28; SN12C; SF-295; SW-620; SK-OV-3; LOX IMVI; U-251; KM12; HL-60; HCC 2998; OVCAR-5.
What all share (experiment): NCI anticancer screen, dose series, 48 h

Experimental findings from ChEMBL document CHEMBL1201862, “PubChem BioAssay data set” (2004) are described below.

Molecules are shown by their SMILES.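 Where inhibition never reached the appropriate level, the endpoint shown equals the highest concentration tested. Otherwise, values were interpolated linearly from a five-concentration, 48-hour dose response in 96-well plates. The concentration for 50% growth inhibition is given as GI50.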 The source made the active and inactive calls. Cut-off read from the data, not from the text of the source: active = GI50 up to about 1.1 µM and inactive = higher.

Turning to `COC(=O)Cc1c([C@@]2(C)CCCC(C)(C)C2)ccc2c1C(=O)OC2`, the GI50 in the test on Malme-3M is 17.9 µM (inactive); in the test on MOLT-4, 3.92 µM (inactive); in the test on A549, 9.84 µM (inactive); in the test on IGROV-1, 15 µM (inactive); in the test with SK-MEL-28, 13.1 µM (inactive); in the test on SN12C it was 10.1 µM (inactive). The GI50 with SF-295 was 10.3 µM (inactive); in the test with SW-620, 18.9 µM (inactive); in the test on SK-OV-3, 14 µM (inactive); in the test with LOX IMVI it was 11.2 µM (inactive); in the test with U-251, 13.3 µM (inactive); with KM12, 8.15 µM (inactive). Moreover, the GI50 with HL-60 was 3.42 µM (inactive).
As for `COc1ccc(C[C@]23CCC(=O)N2CCc2cc(OC)c(O)cc23)cc1O`, the GI50 in the test on Malme-3M, in the test on MOLT-4, in the test on A549, in the test with IGROV-1, in the test with SK-MEL-28 and with SN12C was > 100 µM (inactive) each time. In addition, the GI50 with SF-295, with SW-620, in the test on LOX IMVI, in the test with KM12, in the test on HCC 2998 and with HL-60 was > 100 µM (inactive) throughout. Moreover, in the test with OVCAR-5, the GI50 was > 100 µM (inactive).
As to `COc1cc2c(cc1O)C=NCC2`, the GI50 with Malme-3M was > 100 µM (inactive); with MOLT-4 it was 60.5 µM (inactive); in the test with A549, > 100 µM (inactive); in the test on IGROV-1, > 100 µM (inactive); in the test on SK-MEL-28 it was > 100 µM (inactive); in the test with SN12C it was > 100 µM (inactive). In addition, the GI50 in the test on SF-295, in the test with SW-620, in the test with SK-OV-3, with U-251, in the test on KM12 and in the test with HL-60 was > 100 µM (inactive) each time. Besides, the GI50 with OVCAR-5 was > 100 µM (inactive).
Take `CN(C)/C(N)=N\C#N`: the GI50 in the test on Malme-3M, in the test with MOLT-4, in the test with A549, in the test with IGROV-1, with SK-MEL-28 and in the test on SN12C was > 100 µM (inactive) throughout. Besides, the GI50 is > 100 µM (inactive) in the test with SF-295; 21 µM (inactive) with SW-620; > 100 µM (inactive) with SK-OV-3; > 100 µM (inactive) in the test with U-251; > 100 µM (inactive) with KM12; > 100 µM (inactive) with HCC 2998. Also, the GI50 with HL-60 and in the test with OVCAR-5 was > 100 µM (inactive) in each case.
With `O=C(c1cccs1)N(C(=S)N1CCN(c2ccccn2)CC1)C1CCCCC1`, the GI50 in the test with Malme-3M was 36.3 µM (inactive); in the test on MOLT-4 it was 33 µM (inactive); in the test with A549, 43.7 µM (inactive); with IGROV-1, > 100 µM (inactive); with SK-MEL-28, > 100 µM (inactive); in the test on SN12C, > 100 µM (inactive). Moreover, the GI50 in the test with SF-295 was > 100 µM (inactive); in the test on SW-620, > 100 µM (inactive); with SK-OV-3 it was > 100 µM (inactive); in the test with LOX IMVI, 77.4 µM (inactive); in the test on U-251, 79.1 µM (inactive); with KM12, 60.5 µM (inactive). The GI50 with HL-60 and in the test on OVCAR-5 was > 100 µM (inactive) each time.
For `Cc1cc(C=O)c2c(=O)c3c(O)ccc(/C=C/C(C)C)c3oc2c1`, the GI50 in the test on Malme-3M is > 100 µM (inactive); in the test with MOLT-4, 28.9 µM (inactive); in the test on A549 it was > 100 µM (inactive); in the test on IGROV-1, 52.4 µM (inactive); with SK-MEL-28, 37.9 µM (inactive); in the test on SF-295, > 100 µM (inactive). Besides, the GI50 with SW-620 is 28.1 µM (inactive); in the test on U-251 it was 41.1 µM (inactive); in the test on KM12, 86.9 µM (inactive); with HCC 2998, > 100 µM (inactive); in the test on HL-60, 28.3 µM (inactive); in the test on OVCAR-5 it was > 100 µM (inactive).
As to `NC1=NN(c2ccccc2)C(=O)C1/C(=N\NC(=O)c1cc2ccccc2cc1O)C(=O)Nc1cccc(C(F)(F)F)c1` (stereo not drawn), the GI50 in the test on Malme-3M is 37 µM (inactive); in the test on MOLT-4 it was 16.3 µM (inactive); in the test with A549, 37.2 µM (inactive); in the test with IGROV-1, 27.8 µM (inactive); with SK-MEL-28, 57.7 µM (inactive); with SN12C, 46.6 µM (inactive). Moreover, the GI50 in the test on SF-295 was 49.1 µM (inactive); in the test with SW-620 it was 34.7 µM (inactive); in the test with LOX IMVI it was 25.9 µM (inactive); in the test on U-251 it was 37.7 µM (inactive); in the test on KM12 it was 37.3 µM (inactive); in the test with HCC 2998, 46.2 µM (inactive). Also, the figures for the GI50 with HL-60 and in the test on OVCAR-5 were 6.65 µM (inactive) and 26.2 µM (inactive), respectively.
With `CCN(c1ccccc1)[C@H]1C(=O)N(c2ccc([N+](=O)[O-])cc2)[C@H]1c1ccc(OC)cc1`, the GI50 is > 100 µM (inactive) in the test on Malme-3M; > 100 µM (inactive) in the test with MOLT-4; > 100 µM (inactive) with A549; > 100 µM (inactive) in the test with IGROV-1; > 100 µM (inactive) in the test with SK-MEL-28; 98.6 µM (inactive) with SN12C. Moreover, the GI50 in the test with SF-295 was 52.5 µM (inactive); with SW-620, > 100 µM (inactive); in the test on SK-OV-3, 56.8 µM (inactive); in the test with U-251, > 100 µM (inactive); in the test on KM12, > 100 µM (inactive); in the test with HCC 2998, > 100 µM (inactive). In addition, the GI50 in the test on HL-60 is 75.3 µM (inactive); with OVCAR-5, > 100 µM (inactive).
`CC(C)C(=O)/C=C/c1ccc(Cl)cc1`: the GI50 in the test on MOLT-4 was 12.2 µM (inactive); in the test on A549, 21.7 µM (inactive); in the test on IGROV-1, 21.6 µM (inactive); in the test on SK-MEL-28, > 10 µM (inactive); in the test with SN12C it was 7.73 µM (inactive); with SF-295 it was 13.5 µM (inactive). Further, the GI50 in the test on SW-620 is 3.99 µM (inactive); in the test on SK-OV-3, 40.5 µM (inactive); in the test on LOX IMVI, 8.83 µM (inactive); in the test with U-251 it was 12.9 µM (inactive); in the test with KM12, 11.5 µM (inactive); in the test with HCC 2998, 18 µM (inactive). Also, the GI50 in the test on HL-60 is 8.22 µM (inactive); in the test with OVCAR-5 it was 20.2 µM (inactive).
`COc1cc(C2c3cc4c(cc3[C@@H](N(C)c3ccc(N(C)C)cc3)C3COC(=O)C23)OCO4)cc(OC)c1O` (stereo partly drawn): the GI50 in the test on MOLT-4 is 0.434 µM (active); in the test with IGROV-1 it was 0.536 µM (active); in the test on SK-MEL-28, 1.25 µM (inactive); in the test with SN12C, 0.59 µM (active); with SF-295, 0.147 µM (active); with SW-620, 0.184 µM (active). Besides, the GI50 in the test with SK-OV-3 is 0.402 µM (active); in the test on LOX IMVI, 0.437 µM (active); in the test on U-251, 0.219 µM (active); in the test with KM12, 0.377 µM (active); with HCC 2998 it was 0.785 µM (active); with HL-60 it was 0.362 µM (active). The GI50 in the test on OVCAR-5 was 3.42 µM (inactive).
`Nc1cccc(S(=O)(=O)NCC(=O)O)c1`: the GI50 in the test with Malme-3M, with MOLT-4, with A549, in the test on IGROV-1, with SK-MEL-28 and with SN12C was > 100 µM (inactive) in each case. Besides, the GI50 with SF-295, in the test with SW-620, with SK-OV-3, in the test on LOX IMVI, in the test with U-251 and with KM12 was > 100 µM (inactive) throughout. Moreover, the GI50 in the test with HCC 2998 and in the test on OVCAR-5 was > 100 µM (inactive) throughout.
